This assay addresses T1, LXRβ receptor (Gal-hLXRβ-DEF in HG5LN HeLa cells) (Homo sapiens, UniProt P55055).
T1 construct: stably transported with the Gal-hLXRβ-DEF plasmid; expressed in transfected cells; host or cells: HG5LN cells (HeLa stably transfected with the (17mer)5-bGlob-Luc reporter)
T1 sequence (P55055 222-460 limits assumed): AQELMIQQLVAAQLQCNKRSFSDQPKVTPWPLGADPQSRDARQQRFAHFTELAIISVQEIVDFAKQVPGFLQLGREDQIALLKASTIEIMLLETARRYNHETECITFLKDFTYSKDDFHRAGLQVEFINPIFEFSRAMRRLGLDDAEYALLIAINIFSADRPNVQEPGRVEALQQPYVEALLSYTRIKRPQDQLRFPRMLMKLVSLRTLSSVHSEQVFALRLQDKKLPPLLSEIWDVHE
The assay can be described thus: LXRβ transactivation test (luciferase reporter), determination of Kd apparent by crossover curves against a reference agonist. Format: cell-based. The conditions noted are these: for KdR/KdA: ratio of KdR to KdA. The procedure:
This activity on the LXRβ receptors is measured in the transactivation test and quantified by means of the dissociation constant Kdapp (apparent), as described in Example 3.
The activity of the LXRβ receptors is measured in a transactivation test. Activation of the receptors with an agonist (activator) in HeLa cells leads to the expression of a reporter gene, luciferase, which, in the presence of a substrate, generates light. The activation of the receptors may thus be measured by quantifying the luminescence produced after incubating the cells in the presence of a reference agonist. The antagonist products displace the agonist from its site, thus preventing activation of the receptor: there will thus be a reduction in the light produced, which may be quantified. The agonist products are tested alone and their effect is measured by measuring the activation of luminescence after incubation.
Determination of the Kdapp:
In this study, a constant that is the affinity of the molecule for the receptor is determined. Since this value can fluctuate depending on the basal activity and the expression of the receptor, it is known as the Kd apparent (KdApp).
To determine this constant, “crossover curves” of the test product against a reference agonist are produced in a 96-well plate: […] of the test product plus a concentration 0 (in the rows) and 7 concentrations of the agonist plus a 0 concentration (in the columns). This is 88 measurement points for one product and one receptor. The remaining 8 wells are used for the 100% control (total agonist) and 0% control (DMSO).
These crossover curves make it possible to determine the AC50 values (concentration at which 50% activation is observed) of the reference ligand at various concentrations of the test product. These AC50 values are used to calculate the Schild regression by plotting a straight line corresponding to the Schild equation (“quantitation in receptor pharmacology,” Terry P. Kenakin, Receptors and Channels, 2001, 7, 371-385).
In the case of an antagonist, an IC50 value (concentration inhibiting 50% of the activity) is calculated by plotting the curve of the product at the concentration of the reference ligand giving 80% activation.
The cell lines used are HG5LN cells, HeLa cells stably transfected with the (17mer)5-bGlob-Luc reporter and also stably […] with the Gal-hLXRβ-DEF plasmid. These cells are inoculated into 96-well plates at a rate of 10 000 cells per well in 100 μl of DMEM medium free of phenol red and supplemented with 10% defatted calf serum. The plates are then incubated at 37° C. and 7% CO2 for 4 hours.
The various dilutions of the test products, of the reference ligand and of the 100% control (N-(2,2,2-trifluoroethyl)-N-[4-(trifluorohydroxy-trifluoromethylethyl)phenyl]benzenesulfonamide) and of the 0% control (0.2% dimethyl sulfoxide) are added at a rate of 5 μl per well. The plates are then incubated for 18 hours at 37° C. and 7% CO2.
The culture medium is removed by turning over and 100 μl of a 1:1 PBS/luciferine mixture are added to each well. After 5 minutes, the plates are read using a luminescence detector.
For orientation: Reporter assays use an easily measured gene product as a stand-in for the process of interest.

Where [1] appears, read: KdA, Affinity for the LXRβ receptor, HG5LN HeLa cells, Gal-hLXRβ-DEF, luciferase.
Where [2] appears, read: KdApp, apparent dissociation constant, Schild regression, LXRβ receptor.
Setting [3] is: KdR, Affinity for the LXRβ receptor, HG5LN HeLa cells, Gal-hLXRβ-DEF, luciferase.

Molecules are shown by their SMILES.

For `CC(=O)C1(c2ccccc2)CCN(C(=O)CNC(=O)c2ccc(C3CCCCC3)cc2)CC1` [Compound 18, N-[2-(4-acetyl-4-phenylpiperidin-1-yl)-2-oxoethyl]-4-cyclohexylbenzamide], the KdR/KdA amounted to 4. Further, the Kd under setting [1] worked out at 500 nM. In addition, the Kd under setting [2] is 2000 nM. Moreover, the Kd under setting [3] is 2000 nM.
Take `CCCC(=O)C1(c2ccccc2)CCN(C(=O)C(C)(C)Oc2ccccc2Cl)CC1` [Compound 47, 1-{1-[2-(2-chlorophenoxy)-2-methylpropionyl]4-phenylpiperidin-4-yl}butan-1-one]: the KdR/KdA was 0.1. Also, the Kd under setting [1] was 20000 nM. Also, the Kd under setting [2] is 2000 nM. Also, the Kd under setting [3] came to 2000 nM.
Take `CCCC(=O)C1(c2ccccc2)CCN(C(=O)CNC(=O)c2ccc(C3CCCCC3)cc2)CC1` [Compound 54, N-[2-(4-butyryl-4-phenylpiperidin-1-yl)-2-oxoethyl]-4-cyclohexylbenzamide]: the KdR/KdA is 4. In addition, the Kd under setting [1] was 500 nM. The Kd under setting [2] stood at 2000 nM. The Kd under setting [3] was 2000 nM.

The values are drawn from US20060058351A1, “Novel ligands that modulate LXR-type receptors and cosmetic/pharmaceutical applications thereof” (GALDERMA RESEARCH & DEVELOPMENT, S.N.C., priority 2003, published 2006).
